Measurements reported in article PMC9923724, “Half sandwich-type osmium, ruthenium, iridium and rhodium complexes with bidentate glycosyl heterocyclic ligands induce cytostasis in platinum-resistant ovarian cancer cells and bacteriostasis in Gram-positive multiresistant bacteria” (Frontiers in Chemistry, 2023).
Values joined by “and” are separate entries in the source; they are usually repeats but may differ in a detail not shown here. Equal values may be shown once.

Assays:
Assay type in all cases: cell-based
[1] = test system: A2780 ovarian cancer cells; experiment: MTT reduction assay (rapid toxicity, 4 h) on A2780 cells; details: 4 h treatment
Protocol: First, we assessed a set of osmium complexes (similar to Ia [[Kacsir et al., 2022]) in Figure 1] and their sugar-derived ligands, in which the benzoyl protective groups on the carbohydrate moiety were replaced by aliphatic acyl groups of different chain length (straight chain C3-C7–CO). Osmium was selected as a central ion, since osmium complexes had the best biological activity in our previous studies ([Balázs et al., 2022]; [Kacsir et al., 2022]). These compounds were tested on A2780 ovarian cancer cells for toxicity and cytostasis. The therapy of ovarian cancer is centered around platinum compounds ([Brown et al., 2019]; [Sipos et al., 2021]), therefore, it was logical to use a cellular model of ovarian cancer for the initial testing of the compounds. Toxicity was assessed using the MTT assay that measures the activity of mitochondrial complex I. We chose 4 h long treatment as in an MTT assay this time point is suitable to detect rapid, direct toxicity. Cytostasis was assessed after 48 h of treatment using the SRB assay that assesses protein content that corresponds to cell count. The characteristics of the compounds are detailed in Table 2.
3 × 10^3 A2780 cells, were plated to 96 well plates. Cells were treated with the compounds in the concentrations indicated for either 4 h for an MTT assay or for 48 h for an SRB assay. Data is represented as average ± SD, from three biological replicates; individual assays were performed in duplicates. Values were normalized for vehicle treated cells, absorbance for vehicle treated cells equals to 1. […] Except for the Os-6 complex, Two-way ANOVA test was performed and all values were compared with each other (Tukey’s post hoc test). […] Non-linear regression was performed on the data.
(§1) 3 × 10^3 A2780 cells, 2 × 10^3 ID8 cells and 4 × 10^3 primary fibroblasts were plated to 96 well plates. Cells were treated with the compounds in the concentrations indicated for either 4 h for an MTT assay or for 48 h for an SRB assay. Data is represented as average ± SD, from three biological replicates; individual assays were performed in duplicates. Values were normalized for vehicle treated cells, absorbance for vehicle treated cells equals to 1. Statistical significance was assessed using two-way ANOVA test comparing the free ligand and each complex as a complex-ligand pair. Before the test normality was assessed using the D’Agostino-Pearson test. The ID8 SRB Ir-7+L-7 dataset had lognormal distribution. […] All other datasets had normal distribution. For better visibility the p values are presented in an excel sheet at https://figshare.com/s/2c942a812caea8869a67. Non-linear regression was performed on the A2780 SRB and the ID8 SRB datasets.
(§2) MTT reduction assay measures the activity of mitochondrial complex I and can be used to detect toxicity ([Virág et al., 1998]; [Henslee et al., 2016]). The assay was performed similar to ([Bakondi et al., 2003]). Briefly, cells were plated in 96 well plates the day before the assay. Cells were treated with the compounds for 4 h, then MTT was added in 0.5 mg/ml final concentration and cells were incubated at 37°C in a cell incubator. Culture media was removed and the reduced MTT dye was dissolved in dimethyl-sulfoxide (DMSO) and plates were measured in a plate photometer (Thermo Scientific Multiscan GO spectrophotometer, Waltham, MA, United States) at 540 nm. On each plate wells were designed to contain untreated/vehicle-treated cells. In calculations the readings for these wells was considered as 1 and all readings were expressed relative to these values.

[2] = test system: A2780 ovarian cancer cells; experiment: SRB assay (cytostasis, 48 h) on A2780 cells; details: 48 h treatment
ID8 ovarian cancer cells [3] = experiment: MTT reduction assay (4 h) on ID8 cells
Protocol: as §1
(§3) ID8 cells were cultured in high glucose DMEM (4.5 g/L glucose) medium supplemented with 4% fetal calf serum, 2 mM glutamine, 1% penicillin-streptomycin, 1% ITS supplement (I3146).
as §2

ID8 ovarian cancer cells [4] = experiment: SRB assay (48 h) on ID8 cells
Protocol: as §1, §3
(§4) The assay was performed similar to ([Kovács et al., 2019]). Cells were seeded in 96 well plates the day before the assay. Cells were treated with the compounds for 48 h. Cells were fixed with 10% trichloroacetic acid (TCA). Fixed cells were washed in distilled water 3 times followed by staining with SRB (0.4 m/V% dissolved in 1% acetic acid) for 10 min. Stained cells were washed in 1% acetic acid 5 times; acetic acid was removed and cells were left to dry. Protein-bound SRB was released by adding 100 µl 10 mM Tris base. Plates were measured in a plate photometer (Thermo Scientific Multiscan GO spectrophotometer, Waltham, MA, United States) at 540 nm. On each plate wells were designed to contain vehicle-treated cells. In calculations the readings for these wells was considered as 1 and all readings were expressed relative to these values.
(§5) Statistical analysis was performed using 8.0.1 version of Graphpad Prism. Values were tested for normal distribution using the D’Agostino and Pearson normality test. When necessary, values were log normalized or were normalized using the Box-Cox normalization method ([Box and Cox, 1964]) as indicated in the figure captions. Non-linear regression was performed using the built-in “[Inhibitor] vs. response—Variable slope (four parameters), least square fit” utility of Graphpad that yielded IC50 and Hill slope values.

Saos osteosarcoma cells = experiment: SRB assay (48 h) on Saos cells
Protocol: 3 × 10^3 Capan2 cells, 2 × 10^3 Saos cells and 8 × 10^3 L428 were plated to 96 well plates. Cells were treated with the compounds in the concentrations for 48 h. Then for Capan2 and Saos SRB assay was performed, L428 cells were counted using a Burker chamber. Data is represented as average ± SD, from three biological replicates; individual assays were performed in duplicates. Values were normalized for vehicle treated cells, absorbance for vehicle treated cells equals to 1. Normality was checked using the Shapiro-Wilk test. The Saos Os-7 dataset was normalized using the Box-Cox method, other datasets had normal distribution. Each complex was individually assessed for statistical significance using One-way ANOVA test followed by Dunnett’s post hoc test; all values were compared to the values of the lowest concentration. For better visibility the p values are presented in an excel sheet at https://figshare.com/s/2c942a812caea8869a67. Non-linear regression was performed on the Capan2 and Saos datasets.
Saos cells were maintained in DMEM (4.5 g/L glucose) medium supplemented with 10% fetal calf serum, 2 mM glutamine, 1% penicillin-streptomycin.
as §4, §5

With `Cc1ccc(C(C)C)cc1.F[P-](F)(F)(F)(F)F.O=C(OCC1OC(n2cc(-c3ccc4ccccc4n3)nn2)C(OC(=O)c2ccccc2)C(OC(=O)c2ccccc2)C1OC(=O)c1ccccc1)c1ccccc1.[Cl][Ru+]` (mixture of isomers) [Ru-7] the “A2780 MTT Max. (maximal inhibition)” value [1] was 23.4%, the “A2780 SRB IC50” value [2] was “submicromolar or low micromolar” and the “A2780 SRB Max. (maximal inhibition)” value [2] was greater than 90%. For the same compound, the IC50 [2] was 847 nM, the “ID8 MTT Max. (maximal inhibition)” value (ID8 ovarian cancer cells [3]) was 32.56% and the IC50 (ID8 ovarian cancer cells [4]) was 1140 nM. For the same compound, the “ID8 SRB IC50” value (ID8 ovarian cancer cells [4]) was “submicromolar or low micromolar”, the “ID8 SRB Max. (maximal inhibition)” value (ID8 ovarian cancer cells [4]) was greater than 90% and the IC50 (Saos osteosarcoma cells) was 1180 nM. For the same compound, the “SAOS SRB Max. (maximal inhibition)” value (Saos osteosarcoma cells) was 33.64%.
In the case of `Cc1c(C)c(C)[c-](C)c1C.F[P-](F)(F)(F)(F)F.O=C(OCC1OC(n2cc(-c3ccc4ccccc4n3)nn2)C(OC(=O)c2ccccc2)C(OC(=O)c2ccccc2)C1OC(=O)c1ccccc1)c1ccccc1.[Cl][Ir+2]` (mixture of isomers) [Ir-7], the “A2780 MTT Max. (maximal inhibition)” value [1] is reported as 23.2%, the “A2780 SRB IC50” value [2] is reported as “submicromolar or low micromolar” and the “A2780 SRB Max. (maximal inhibition)” value [2] is reported as greater than 90%. For the same compound, the IC50 [2] was 891 nM, the “ID8 MTT Max. (maximal inhibition)” value (ID8 ovarian cancer cells [3]) was 19.23% and the IC50 (ID8 ovarian cancer cells [4]) was 799 nM. For the same compound, the “ID8 SRB IC50” value (ID8 ovarian cancer cells [4]) was “submicromolar or low micromolar”, the “ID8 SRB Max. (maximal inhibition)” value (ID8 ovarian cancer cells [4]) was greater than 90% and the IC50 (Saos osteosarcoma cells) was 1580 nM. The “SAOS SRB Max. (maximal inhibition)” value (Saos osteosarcoma cells) was 33%.
In the case of `Cc1ccc(C(C)C)cc1.F[P-](F)(F)(F)(F)F.O=C(OCC1OC(n2cc(-c3ccc4ccccc4n3)nn2)C(OC(=O)c2ccccc2)C(OC(=O)c2ccccc2)C1OC(=O)c1ccccc1)c1ccccc1.[Cl][Os+]` (mixture of isomers) [Os-7], the “A2780 MTT Max. (maximal inhibition)” value [1] is reported as 33.0%, the “A2780 SRB IC50” value [2] is reported as “submicromolar or low micromolar” and the “A2780 SRB Max. (maximal inhibition)” value [2] is reported as greater than 90%. The IC50 [2] was 578 nM, the “ID8 MTT Max. (maximal inhibition)” value (ID8 ovarian cancer cells [3]) was 75% and 74.90% and the IC50 (ID8 ovarian cancer cells [4]) was 359 nM. For the same compound, the “ID8 SRB IC50” value (ID8 ovarian cancer cells [4]) was “submicromolar or low micromolar”, the “ID8 SRB Max. (maximal inhibition)” value (ID8 ovarian cancer cells [4]) was greater than 90% and the IC50 (Saos osteosarcoma cells) was 1290 nM. For the same compound, the “SAOS SRB Max. (maximal inhibition)” value (Saos osteosarcoma cells) was 48.04%.
